This is an account of results in patent US20250313547A1, “CEREBLON LIGANDS AND BIFUNCTIONAL COMPOUNDS COMPRISING THE SAME” (Arvinas Operations, Inc., priority 2017, published 2025).

The test system of one assay is c-myc. The experiment in a line: BRD4 human c-Myc ELISA assay in 22RV-1 cells. To be noted: 18 hours. It counts as cell-based. The protocol:
6. BRD4 Human c-Myc ELISA Assay Protocol
22RV-1 cells were seeded at 30,000 cells/well at a volume of 75 µL/well in RPMI with 10% FBS media in 96-well plates and grown overnight at 37° C. Cells were dosed with compounds at 4× concentration diluted in 0.4% DMSO; compounds were serially diluted 1:3 for 8-point dose curve. Twenty-five (25) ul of the compounds was added to cells for a final concentration starting at 300 nM-0.3 nM or 1 uM-1 nM in 0.1% DMSO and incubated for 18 hours. Media was aspirated, cells were washed 1×with PBS and aspirated. Cells were lysed in 50 ul RIPA buffer (50 mM Tris pH8, 150 mM NaCl, 1% Tx-100, 0.1% SDS, 0.5% sodium deoxycholate) supplemented with protease and phosphatase inhibitors. Plates were incubated on ice for 15 minutes then centrifuged at 4° C. for 10 minutes at 4000 rpm. Fifty (50) ul of cleared lysate from a 96-well assay plate was added into 96-well c-myc ELISA plate (Novex, Life Technologies Catalog #KH02041). c-myc standard was reconstituted with standard diluent buffer; standard curve range of 333 pg/ml-0 pg/ml was prepared, diluted 1:2 for 8-point dose curve. The rest of the assay was performed following the protocol from the c-myc ELISA kit. Data was analyzed and plotted using GraphPad Prism software.
Background: ELISA stands for enzyme-linked immunosorbent assay.

A further assay relates to tau protein. The experiment in a line: Tau protein in vitro degradation assay in SK-N-SH cells (Western blot). To be noted: % degraded, 72-hour incubation. The class given is cell-based, human. The protocol: 10. Tau Protein In Vitro Degradation Assay
To determine effect of PROTACs on tau protein degradation SK-N-SH cells were seeded in a 24-well tissue culture-treated plate for at least 18-hours prior to compound addition. Tau PROTACs were evaluated for tau degradation by lysing the cells in RIPA buffer with protease inhibitors following a 72-hour incubation with tau PROTACs. Cell lysates were run on standard SDS-PAGE gels, and tau levels were detected by Western blotting using Tau-13 antibody from Abcam (Cambridge, UK) that binds to all forms of human tau.
(Immunoblotting shows a protein as a band on a membrane.)

The target of assay [1] is T1, Estrogen receptor-alpha (ERα) (Homo sapiens (Human), UniProt P03372). The experiment in a line: ERα degradation assay in T47D cells. The class given is cell-based. The conditions noted are these: 5 day incubation, read-out: ER degradation DC50.
The target in assay [2] is T1, Estrogen receptor-alpha (ERα). The experiment in a line: ERα degradation assay using In-Cell Western in MCF7 cells. The class given is cell-based. The conditions noted are these: read-out: ER degradation DC50. The protocol: 3. Estrogen Receptor-Alpha (ERα) Degradation Assay Using in-Cell Western™ Assay for Table 5.
Degradation of ERα by claimed compounds were determined in MCF7 cells using an In-Cell Western™ assay. Briefly, MCF7 cells were plated in 96-well plates (2000 cells per well in 100 μl media) and incubated at 37° C. under an atmosphere of 5% CO2 in a humidified incubator overnight. One-hundred (100) μl of media containing test compound (at 2× concentration) was added to the appropriate wells to provide 11 serially decreasing concentrations (top final concentration, 1 μM then 3-fold less for the next 10 concentrations); a vehicle control (DMSO) was also added for each compound. For each experiment, all compounds were assayed in duplicate plates. Cells were then incubated for 3 or 5 days in the above-mentioned environment. The assay was terminated by removal of media, a single wash with ice-cold PBS and the addition of 50 μl paraformaldehyde (PFA: 4% in PBS). After 15 minutes in PFA at room temperature, the cells were permeabilized in Tris-phosphate-buffered saline with Tween (0.1%) (TBST) supplemented with Triton X-100 (0.5%) for 15 minutes. Cells were then blocked in BSA (TBST with BSA, 3%) for one hour. […] The cells were incubated overnight at 4° C. The cells were then washed thrice with TBST at room temperature and then incubated with anti-rabbit and anti-mouse fluorescently-labelled secondary antibodies (IRDye®; LI-COR; Lincoln, NE) in LI-COR blocking buffer (Catalog #927-50000) for one hour at room temperature. Following 3 washes with TBST, the buffer was removed and the plates were read on an Odyssey® infrared imaging system (LI-COR®; Lincoln, NE) at 700 nm and 800 nm. Using commercial software (ImageStudio™; LI-COR, Lincoln, NE), the staining intensity for ERα and tubulin in each well was quantified and exported for analysis. For each data point, ERα intensity was normalized to tubulin intensity and for each compound all normalized intensity values were normalized to the vehicle control. DC50 and Dmax values were determined following a 4-parameter IC50 curve fit using ACAS dose response module (McNeil & Co Inc.).

T1 sequence (P03372 whole entry): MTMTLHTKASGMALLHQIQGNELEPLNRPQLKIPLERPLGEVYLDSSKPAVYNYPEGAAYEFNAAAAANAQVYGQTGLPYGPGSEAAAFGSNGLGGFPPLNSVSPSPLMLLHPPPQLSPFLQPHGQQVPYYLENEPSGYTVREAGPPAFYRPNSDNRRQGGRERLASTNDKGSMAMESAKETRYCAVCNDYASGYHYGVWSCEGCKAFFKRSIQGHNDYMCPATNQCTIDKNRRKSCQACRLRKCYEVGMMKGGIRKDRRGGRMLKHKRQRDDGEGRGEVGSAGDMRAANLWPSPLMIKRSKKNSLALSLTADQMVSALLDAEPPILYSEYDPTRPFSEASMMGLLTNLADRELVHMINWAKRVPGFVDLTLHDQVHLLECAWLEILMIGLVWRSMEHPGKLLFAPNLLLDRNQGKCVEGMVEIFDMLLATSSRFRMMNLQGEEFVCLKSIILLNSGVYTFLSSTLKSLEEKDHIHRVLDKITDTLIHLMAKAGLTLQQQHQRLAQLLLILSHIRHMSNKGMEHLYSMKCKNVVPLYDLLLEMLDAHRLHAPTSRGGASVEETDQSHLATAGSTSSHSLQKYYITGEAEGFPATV

In the case of `Cc1sc2c(c1C)C(c1ccc(Cl)cc1)=NC(CC(=O)NCCCOCCCOc1ccc3ncc(-n4ccc(=O)[nH]c4=O)cc3c1)c1nnc(C)n1-2` (stereo not drawn) [PROTAC-1, 2-(4-(4-chlorophenyl)-2,3,9-trimethyl-6H-thieno[3,2-f][1,2,4]triazolo[4,3-a][1,4]diazepin-6-yl)-N-(3-(3-((3-(2,4-dioxo-3,4-dihydropyrimidin-1(2H)-yl)quinolin-6-yl)oxy)propoxy)propyl)acetamide], the “IMax Myc” value in the assay on c-myc was 40C (C <= 50).

As to `Cn1c2ccncc2c2ccc(-c3ccc(OCCOCCOCCOCCOCCN4CCC5(CC4)CC(=O)N(C4CCC(=O)NC4=O)C5=O)nc3)cc21` (stereo not drawn) [PROTAC-112, 2-(2,6-dioxopiperidin-3-yl)-8-(14-((5-(5-methyl-5H-pyrido[4,3-b]indol-7-yl)pyridin-2-yl)oxy)-3,6,9,12-tetraoxatetradecyl)-2,8-diazaspiro[4.5]decane-1,3-dione], the “Tau degradation % DMax” value in the assay with tau protein is given as “C (C <= 50)”.

As usually defined, the DC50 is the concentration at which degradation of the target reaches its halfway point. As for `O=C1CCC(N2CC(Oc3cccc(C4CCN(CCCCOc5ccc([C@@H]6c7ccc(O)cc7CC[C@@H]6c6ccccc6)cc5)CC4)c3)=CC2=O)C(=O)N1` (mixture of isomers) [PROTAC-104, rac-3-(4-(3-(1-(4-(4-((1R,2S)-6-hydroxy-2-phenyl-1,2,3,4-tetrahydronaphthalen-1-yl)phenoxy)butyl)piperidin-4-yl)phenoxy)-2-oxo-2,5-dihydro-1H-pyrrol-1-yl)piperidine-2,6-dione], the DC50 in assay [1] was not below 0.1 µM.

Regarding `O=C1CCC(N2CC(Oc3cccc(C4CCN(CCCOc5ccc([C@@H]6c7ccc(O)cc7CC[C@@H]6c6ccccc6)cc5)CC4)c3)=CC2=O)C(=O)N1` (stereo partly drawn) [PROTAC-106, 3-(4-(3-(1-(3-(4-((1R,2S)-6-hydroxy-2-phenyl-1,2,3,4-tetrahydronaphthalen-1-yl)phenoxy)propyl)piperidin-4-yl)phenoxy)-2-oxo-2,5-dihydro-1H-pyrrol-1-yl)piperidine-2,6-dione], the DC50 in assay [1] lay within 0.001 to 0.01 µM.

With `O=C1CCC(N2CC(Oc3cccc(C4CCN(CCCCOc5ccc([C@H]6c7ccc(O)cc7CC[C@H]6c6ccccc6)cc5)CC4)c3)=CC2=O)C(=O)N1` (mixture of isomers) [PROTAC-109, rac-3-(4-(3-(1-(4-(4-((1R,2S)-6-hydroxy-2-phenyl-1,2,3,4-tetrahydronaphthalen-1-yl)phenoxy)butyl)piperidin-4-yl)phenoxy)-2-oxo-2,5-dihydro-1H-pyrrol-1-yl)piperidine-2,6-dione], in assay [1], the DC50 was not below 0.1 µM.

In the case of `O=C1CCC(N2CC(Oc3cccc(C4CCN(CCCOc5ccc([C@H]6c7ccc(O)cc7CC[C@H]6c6ccccc6)cc5)CC4)c3)=CC2=O)C(=O)N1` (mixture of isomers) [PROTAC-105, rac-3-(4-(3-(1-(3-(4-((1R,2S)-6-hydroxy-2-phenyl-1,2,3,4-tetrahydronaphthalen-1-yl)phenoxy)propyl)piperidin-4-yl)phenoxy)-2-oxo-2,5-dihydro-1H-pyrrol-1-yl)piperidine-2,6-dione], the DC50 in assay [1] was not below 0.1 µM.

Turning to `O=C1CCC(n2ncc(N3CCN(CCCCCOc4ccc([C@@H]5c6ccc(O)cc6CC[C@@H]5c5ccccc5)cc4)CC3)cc2=O)C(=O)N1` (mixture of isomers) [PROTAC-100, rac-3-(4-(4-(5-(4-((1R,2S)-6-hydroxy-2-phenyl-1,2,3,4-tetrahydronaphthalen-1-yl)phenoxy)pentyl)piperazin-1-yl)-6-oxopyridazin-1(6H)-yl)piperidine-2,6-dione], the DC50 in assay [2] (5 day incubation) lay within 0.001 to 0.01 µM.

`CCN(C(=O)c1ccc(N2CCN(CCCCCOc3ccc([C@@H]4c5ccc(O)cc5CC[C@@H]4c4ccccc4)cc3)CC2)cc1OC)C1CCC(=O)NC1=O` (mixture of isomers) [PROTAC-92, rac-N-(2,6-dioxopiperidin-3-yl)-N-ethyl-4-(4-(5-(4-((1R,2S)-6-hydroxy-2-phenyl-1,2,3,4-tetrahydronaphthalen-1-yl)phenoxy)pentyl)piperazin-1-yl)-2-methoxybenzamide]: the DC50 in assay [1] is not below 0.1 µM.

For the molecule `Cc1nc2c(OCCN3CCN(CCOc4ccc(Oc5c(-c6ccc(Br)cc6)sc6cc(O)ccc56)cc4)CC3)cccc2c(=O)n1C1CCC(=O)NC1=O` (stereo not drawn) [PROTAC-108, 3-(8-(2-(4-(2-(4-((2-(4-bromophenyl)-6-hydroxybenzo[b]thiophen-3-yl)oxy)phenoxy)ethyl)piperazin-1-yl)ethoxy)-2-methyl-4-oxoquinazolin-3(4H)-yl)piperidine-2,6-dione], the DC50 in assay [2] (3 day incubation) is not below 0.1 µM.
